Patent US20140105948A1, “STABILITY OF PEROXIDE IN ORAL CARE COMPOSTIONS” (INTERCONTINENTAL GREAT BRANDS LLC, priority 2011, published 2014)
Where a name gives a salt, the structure may show the parent alone. Residues, ends and D or L forms follow the SMILES beside them.

Columns and labels:
[1] = Stability of carbamide peroxide stored with sweeteners; assay type: physicochemical; settings: for tendency of sweetener to react with the peroxide: result in words; for % Carbamide Peroxide recovered after 4 weeks of aging with sweetener at 25 C.: carbamide peroxide stored with sweetener, four weeks
Method: The present inventors have compared the action of certain sweeteners on the effect with carbamide peroxide, with surprising results. Carbamide peroxide was stored with three sweeteners, and stored for four weeks at 25° C. to determine stability. The three sweeteners included aspartame, acesulfame potassium and sucralose. The percentage of carbamide peroxide recovered after four weeks was measured.

[2] = Shelf life stability of encapsulated carbamide peroxide in chewing gum (Example 1); assay type: physicochemical; settings: without encapsulation, after two weeks of storage
Method: The stability of various encapsulants for carbamide peroxide in chewing gum was measured. As explained above, peroxides in general are known to be problematic in the shelf life of chewing gums, as they have a tendency to break down gum base, rendering it ineffective and useless. Chewing gums including various encapsulated carbamide peroxides were prepared and were stored for eight weeks at room temperature and at 37° C. Solid carbamide peroxide was encapsulated in the following encapsulating materials: (1) ethyl cellulose (25% encapsulant weight); (2) polyvinyl acetate B30 (30% encapsulant weight); (3) gum arabic (30% encapsulant weight); (4) mannitol (30% encapsulant weight); and (5) shellac (30% encapsulant weight). These encapsulated particles were used in formulating pieces of chewing gum and were measured for shelf life stability. In addition, a control chewing gum was prepared, which included non-encapsulated (“free”) carbamide peroxide within the gum base. The amount of carbamide peroxide obtained after the study was measured. […] At room temperature after eight weeks, chewing gums including this encapsulated carbamide peroxide had approximately 95% of the carbamide peroxide remaining. Even after eight weeks at elevated temperatures, these products had approximately 80% of the carbamide peroxide remaining.

| Molecule | tendency of sweetener to react with the peroxide [1] | % Carbamide Peroxide recovered after 4 weeks of aging with sweetener at 25 C. [1] [%] | % Carbamide Peroxide recovered after 4 weeks of aging with sweetener at 25 C. ([1]; listed as aspartame) | carbamide peroxide decomposed in chewing gum product [2] |
| --- | --- | --- | --- | --- |
| CC1=CC(=O)NS(=O)(=O)O1 [Ace-K, potassium salt of 3,4-dihydro-6-methyl-1,2,3-oxathiazine-4-one-2,2-dioxide] | – | 92 | – | – |
| NC(N)=O.OO [carbamide peroxide] | – | – | – | nearly all of the carbamide peroxide is decomposed |
| OCC(O)CO [glycerin] | have a tendency to react with the peroxide | – | – | – |
| COC(=O)[C@H](Cc1ccccc1)NC(=O)[C@@H](N)CC(=O)O [Aspartame, L-aspartyl-L-phenylalanine methyl ester] (H-Asp-Phe-OMe) | have a tendency to react with the peroxide | 78 | significant reduction | – |

Now from value to molecule, other results behind:

| tendency of sweetener to react with the peroxide [1] | % Carbamide Peroxide recovered after 4 weeks of aging with sweetener at 25 C. [1] [%] | % Carbamide Peroxide recovered after 4 weeks of aging with sweetener at 25 C. ([1]; listed as aspartame) | Molecule | carbamide peroxide decomposed in chewing gum product [2] |
| --- | --- | --- | --- | --- |
| do not react with the peroxide | – | – | isomalt | – |
| do not react with the peroxide | 100 | – | OC[C@H]1O[C@H](O[C@]2(CCl)O[C@H](CCl)[C@@H](O)[C@@H]2O)[C@H](O)[C@@H](O)[C@H]1Cl [Sucralose] | – |
| do not react with the peroxide | – | – | OC[C@@H](O)[C@@H](O[C@H]1O[C@H](CO)[C@@H](O)[C@H](O)[C@H]1O)[C@H](O)[C@@H](O)CO [maltitol] | – |
